The record followed here is paper PMC6145453 (ACS infectious diseases, 2018).

Test [1] addresses NP (rY40F WSN virus infected A549 cells) (Influenza A virus, UniProt P15682, G34D/P283S/Y40F). It is filed as cell-based.
In the next test the test system is rWSN-NP/Y40F virus. It is filed as cell-based, influenza A virus.
Test [2] deals with A/Brisbane/59/2007-R (oseltamivir resistant). Kind of test: microbe, parasite or virus in culture. It is filed as cell-based. The settings on record: Influenza A virus, H1N1, A549, 24 h.
The test system of another test is influenza A/WSN/33 virus. It is filed as cell-based.

SMILES strings stand for the structures. Entries after “also recorded” stand apart in the source; their conditions may differ.

`Cc1onc(-c2ccccc2)c1C(=O)N1CCN(c2ccc([N+](=O)[O-])cc2Cl)CC1` [nucleozin, reference compound]: in test [1], the “effect on NP oligomerization” value was “altered”. Moreover, the “resistance phenotype of Y40F mutant virus” value (from here on “resistance phenotype”) with rWSN-NP/Y40F virus was “minor resistance phenotype”.

Regarding `CC(C)(C)c1ccc(C(=O)Nc2ccc(NC(=O)c3ccc(C(C)(C)C)cc3)cc2)cc1` [S119, N,N′-(1,4-Phenylene)bis(4-(tert-butyl)benzamide)], the “effect on NP oligomerization” value in test [1] is on record as “unaffected”. In addition, the IC50 (usually the concentration that inhibits the measured activity by half) in test [2] was above 50 µM. In addition, in the test with rWSN-NP/Y40F virus, the “resistance phenotype” value is “resistant phenotype”. Further, the “maximum virus inhibition while maintaining enough virus production for passages” value in the test with influenza A/WSN/33 virus was found to be 3 logs.

`CC(C)(C)c1ccc(C(=O)Nc2ccc(Nc3ccccc3)cc2)cc1` [S119-8, 4-(tert-butyl)-N-(4-(phenylamino)-phenyl)benzamide] registered an IC50 in test [2] of 3.85 µM. Also, the “resistance phenotype” value with rWSN-NP/Y40F virus was “maintained resistance; also recorded: retains the same Y40F resistant phenotype”.
